Like-named read-outs stand apart in the source and are kept apart here. Starred links: 1 amine or outer side, 2 acyl side, 3 side chain; linkers in the order of their positions; H or OH if unused. Positions of bridges follow the written chain, without caps; N, C: chain ends. Non-standard residues stand in square brackets, D forms with d. Residues, ends and D or L forms follow the SMILES beside them. ξ: configuration not given here. *: point of attachment. NMeF = CN[C@@H](Cc1ccccc1)C(=O)O; NMeGABA = CN(CCCC(=O)[*:2])[*:1]; NMeI = CC[C@H](C)[C@H](NC)C(=O)O; NMeβAla = CN(CCC(=O)[*:2])[*:1]; NMeL = CN[C@@H](CC(C)C)C(=O)O; ξNMeF = CNC(Cc1ccccc1)C(=O)O; NMeV = CN[C@H](C(=O)O)C(C)C; NMeA = CN[C@@H](C)C(=O)O; Piperidide = C1CCN(*)CC1; dNMeA = CN[C@H](C)C(=O)O; Sar = CNCC(=O)O; tBu = CC(C)(C)*
How the values were obtained:
[1] = Metabolic stability in human hepatic microsome; assay type: in vitro ADME; conditions: microsomes
[2] = PAMPA (parallel artificial membrane permeability assay); assay type: in vitro ADME; conditions: PAMPA
Procedure, shortened: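 Artificial membrane was 10% (w/v) egg lecithin plus 0.5% (w/v) cholesterol in dodecane on a PVDF filter. A 10 mM DMSO stock was added at 0.5% (v/v) to donor buffer (50 mM MOPSO, pH 6.5, 5.0% glycocholic acid). After 18 h at 37 °C, LC/MS or LC/UV gave donor and acceptor levels for Pe.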

[3] = pH 7.4, human hepatic microsome, NADPH(+), read-out: CL NADPH(+)
[4] = membrane permeation rate (Pe), 50 mM MOPSO buffer pH 6.5 with 5.0% glycocholic acid, 37° C., 18 hours, read-out: iPAMPA Pe

Structure (SMILES) | microsomal CLint at 1 uM [1, 3] [µL/min/mg] | Papp at 18 hours, 50 µM [2, 4] [×10⁻⁶ cm/s] | microsomal CLint at 1 uM ([1]; human, pH 7.4, CL NADPH(+)) [µL/min/mg] | Papp at 18 hours, 50 µM ([2]; pH 6.5) [×10⁻⁶ cm/s]
CC(C)C[C@H]1C(=O)N(C)[C@@H](Cc2ccccc2)C(=O)N[C@H](C(=O)N2CCCCC2)CC(=O)N(C)[C@H](C)C(=O)N[C@@H]([C@@H](C)O)C(=O)N(C)[C@@H](C)C(=O)N(C)[C@@H](Cc2ccccc2)C(=O)N[C@@H](COC(C)(C)C)C(=O)NCC(=O)N1C [DP-270] ([dNMeA]T[NMeA][NMeF]S(tBu)G[NMeL][NMeF]D-Piperidide; lactam N-9) | 79 | 22 |  | 
CC(C)C[C@H]1C(=O)N(C)[C@@H](Cc2ccccc2)C(=O)NCC(=O)N[C@H](C(=O)N2CCCCC2)CC(=O)N(C)CC(=O)N[C@@H]([C@@H](C)O)C(=O)N(C)[C@@H](C)C(=O)N[C@@H](COC(C)(C)C)C(=O)N(C)[C@@H](Cc2ccccc2)C(=O)N1C [DP-271] ([Sar]T[NMeA]S(tBu)[NMeF][NMeL][NMeF]GD-Piperidide; lactam N-9) | 38 | 10 |  | 
CC[C@H](C)[C@H]1C(=O)N[C@H](C(=O)N2CCCCC2)CC(=O)N(C)CCCC(=O)N(C)[C@@H](Cc2ccccc2)C(=O)N[C@@H]([C@@H](C)O)C(=O)N(C)CC(=O)N[C@@H](COC(C)(C)C)C(=O)N(C)[C@@H](CC(C)C)C(=O)N(C)[C@@H](CC(C)C)C(=O)N1C [DP-272] ([NMeGABA][NMeF]T[Sar]S(tBu)[NMeL][NMeL][NMeI]D-Piperidide; lactam N-9) | 82 | 49 |  | 
CC[C@H](C)[C@@H]1NC(=O)[C@H](Cc2ccccc2)NC(=O)[C@H](C(C)C)N(C)C(=O)CCCN(C)C(=O)C[C@@H](C(=O)N2CCCCC2)NC(=O)[C@H](Cc2ccccc2)NC(=O)[C@H](CC(C)C)N(C)C(=O)CNC(=O)[C@H](CC(C)C)N(C)C(=O)[C@H](C)N(C)C(=O)[C@H]([C@@H](C)O)NC(=O)[C@H](CC(C)C)NC1=O [DP-273] ([NMeGABA][NMeV]FILT[NMeA][NMeL]G[NMeL]FD-Piperidide; lactam N-12) |  |  | 102 | 21
CC[C@H](C)[C@@H]1NC(=O)[C@H](Cc2ccccc2)N(C)C(=O)[C@H](Cc2ccccc2)NC(=O)[C@H]([C@@H](C)O)NC(=O)[C@H](C(C)C)N(C)C(=O)[C@H](CC(C)C)NC(=O)[C@H](CC(C)C)N(C)C(=O)CCCN(C)C(=O)C[C@@H](C(=O)N2CCCCC2)NC(=O)[C@H](C)NC(=O)[C@H](C)N(C)C1=O [DP-274] ([NMeGABA][NMeL]L[NMeV]TF[NMeF]I[NMeA]AD-Piperidide; lactam N-11) |  |  | 183 | 25
CC[C@H](C)[C@@H]1NC(=O)[C@H](CC(C)C)N(C)C(=O)[C@H](CC(C)C)N(C)C(=O)[C@H](C)NC(=O)CCCN(C)C(=O)C[C@@H](C(=O)N2CCCCC2)NC(=O)[C@H](CC(C)C)N(C)C(=O)[C@H](Cc2ccccc2)N(C)C(=O)CN(C)C(=O)[C@H]([C@@H](C)O)NC(=O)[C@H](Cc2ccccc2)N(C)C1=O [DP-275] ([NMeGABA]A[NMeL][NMeL]I[NMeF]T[Sar][NMeF][NMeL]D-Piperidide; lactam N-11) |  |  | 440 | 36
CC(C)C[C@H]1C(=O)N[C@@H](C)C(=O)N(C)[C@@H](Cc2ccccc2)C(=O)N2CCC[C@H]2C(=O)N(C)[C@@H](CC(C)C)C(=O)N(C)[C@@H](C(C)C)C(=O)N[C@H](C(=O)N2CCCCC2)CC(=O)N(C)CCCC(=O)N[C@@H]([C@@H](C)O)C(=O)N(C)CC(=O)N(C)[C@@H](Cc2ccccc2)C(=O)N1C [DP-276] ([NMeGABA]T[Sar][NMeF][NMeL]A[NMeF]P[NMeL][NMeV]D-Piperidide; lactam N-11) |  |  | 68 | 19
CC(C)C[C@H]1C(=O)N(C)[C@@H](C(C)C)C(=O)N[C@@H](Cc2ccccc2)C(=O)N[C@H](C(=O)N2CCCCC2)CC(=O)N(C)CCCC(=O)N[C@@H](COC(C)(C)C)C(=O)N(C)[C@@H](CC(C)C)C(=O)N(C)[C@@H](Cc2ccccc2)C(=O)N[C@@H]([C@@H](C)O)C(=O)NCC(=O)N1C [DP-277] ([NMeGABA]S(tBu)[NMeL][NMeF]TG[NMeL][NMeV]FD-Piperidide; lactam N-10) | 389 | 38 |  | 
CC[C@H](C)[C@@H]1NC(=O)[C@H](C)N(C)C(=O)C[C@@H](C(=O)N(C)[C@@H](Cc2ccccc2)C(=O)N[C@@H](C)C(=O)N2CCCCC2)NC(=O)[C@H](CC(C)C)N(C)C(=O)[C@H](CC(C)C)NC(=O)[C@@H]2CCCN2C(=O)CNC(=O)[C@H](CC(C)C)N(C)C(=O)[C@H](Cc2ccccc2)N(C)C(=O)[C@H](Cc2ccccc2)NC(=O)[C@H]([C@@H](C)O)NC1=O [DP-280] ([NMeA]ITF[NMeF][NMeL]GPL[NMeL]D[NMeF]A-Piperidide; lactam N-11) |  |  | 28 | 21
CC[C@H](C)[C@@H]1NC(=O)[C@H](C)N(C)C(=O)[C@H](CC(C)C)N(C)C(=O)CCN(C)C(=O)C[C@@H](C(=O)N(C)[C@@H](Cc2ccccc2)C(=O)N[C@@H](C)C(=O)N2CCCCC2)NC(=O)[C@H](CC(C)C)N(C)C(=O)[C@H](Cc2ccccc2)N(C)C(=O)[C@H](Cc2ccccc2)N(C)C(=O)[C@H](C)N(C)C(=O)[C@H]([C@@H](C)O)NC(=O)[C@H](CC(C)C)N(C)C1=O [DP-281] ([NMeβAla][NMeL][NMeA]I[NMeL]T[NMeA][NMeF][NMeF][NMeL]D[NMeF]A-Piperidide; lactam N-11) |  |  | 28 | 17
CC(C)C[C@@H]1NC(=O)[C@H](CC(C)C)N(C)C(=O)CNC(=O)[C@H](Cc2ccccc2)NC(=O)[C@H](C(C)C)N(C)C(=O)[C@H](Cc2ccccc2)NC(=O)[C@H](C)N(C)C(=O)CCN(C)C(=O)C[C@@H](C(=O)N(C)[C@@H](Cc2ccccc2)C(=O)N[C@@H](C)C(=O)N2CCCCC2)NC(=O)[C@H](C)N(C)C(=O)[C@H](CC(C)C)N(C)C1=O [DP-282] ([NMeβAla][NMeA]F[NMeV]FG[NMeL]L[NMeL][NMeA]D[NMeF]A-Piperidide; lactam N-11) |  |  | 138 | 28
CC[C@H](C)[C@H]1C(=O)N[C@@H](C)C(=O)N(C)[C@@H](CC(C)C)C(=O)N(C)[C@@H](Cc2ccccc2)C(=O)N[C@@H]([C@@H](C)O)C(=O)N(C)[C@@H](C)C(=O)N(C)[C@@H](CC(C)C)C(=O)N(C)[C@@H](Cc2ccccc2)C(=O)N[C@H](C(=O)N(C)[C@@H](Cc2ccccc2)C(=O)N[C@@H](C)C(=O)N2CCCCC2)CC(=O)N(C)CC(=O)N(C)[C@@H](CC(C)C)C(=O)N1C [DP-284] ([Sar][NMeL][NMeI]A[NMeL][NMeF]T[NMeA][NMeL][NMeF]D[NMeF]A-Piperidide; lactam N-11) |  |  | 11 | 0.21
CC(C)C[C@@H]1NC(=O)[C@H](C)N(C)C(=O)CNC(=O)[C@H](C(C)C)N(C)C(=O)[C@H](Cc2ccccc2)NC(=O)[C@H]([C@@H](C)O)NC(=O)[C@H](CC(C)C)N(C)C(=O)CN(C)C(=O)C[C@@H](C(=O)N(C)[C@@H](Cc2ccccc2)C(=O)N[C@@H](C)C(=O)N2CCCCC2)NC(=O)[C@H](C)N(C)C(=O)[C@H](CC(C)C)N(C)C1=O [DP-285] ([Sar][NMeL]TF[NMeV]G[NMeA]L[NMeL][NMeA]D[NMeF]A-Piperidide; lactam N-11) |  |  | 69 | 16
CC[C@H](C)[C@@H]1NC(=O)[C@H](C)N(C)C(=O)[C@H]([C@@H](C)O)NC(=O)[C@H](C(C)C)N(C)C(=O)[C@H](C)N(C)C(=O)[C@H](Cc2ccccc2)NC(=O)[C@H](C)NC(=O)C[C@@H](C(=O)N(C)[C@@H](Cc2ccccc2)C(=O)N[C@@H](C)C(=O)N2CCCCC2)NC(=O)[C@H](C)N(C)C(=O)[C@H](CC(C)C)N(C)C1=O [DP-288] (AF[NMeA][NMeV]T[NMeA]I[NMeL][NMeA]D[NMeF]A-Piperidide; lactam N-10) |  |  | 80 | 18
CC[C@H](C)[C@@H]1NC(=O)[C@H](CC(C)C)N(C)C(=O)CN(C)C(=O)[C@H]([C@@H](C)O)NC(=O)[C@H](CC(C)C)N(C)C(=O)[C@H](Cc2ccccc2)N(C)C(=O)[C@H](C)N(C)C(=O)[C@@H](C)NC(=O)C[C@@H](C(=O)N(C)[C@@H](Cc2ccccc2)C(=O)N[C@@H](C)C(=O)N2CCCCC2)NC(=O)[C@H](C(C)C)N(C)C1=O [DP-290] ([dA][NMeA][NMeF][NMeL]T[Sar][NMeL]I[NMeV]D[NMeF]A-Piperidide; lactam N-10) | 23 | 19 |  | 
CC(C)C[C@H]1C(=O)N(C)[C@@H](C(C)C)C(=O)N[C@@H](Cc2ccccc2)C(=O)N[C@H](C(=O)N(C)[C@@H](Cc2ccccc2)C(=O)N[C@@H](C)C(=O)N2CCCCC2)CC(=O)N[C@H](C)C(=O)N[C@@H](C(C)C)C(=O)N(C)[C@@H](CC(C)C)C(=O)N[C@@H]([C@@H](C)O)C(=O)N(C)[C@@H](Cc2ccccc2)C(=O)NCC(=O)N1C [DP-291] ([dA]V[NMeL]T[NMeF]G[NMeL][NMeV]FD[NMeF]A-Piperidide; lactam N-10) |  |  | 97 | 14
CC[C@H](C)[C@@H]1NC(=O)[C@H](C)N(C)C(=O)[C@H](CC(C)C)N(C)C(=O)[C@H](Cc2ccccc2)NC(=O)[C@H]([C@@H](C)O)NC(=O)[C@H](C(C)C)N(C)C(=O)[C@H](C)N(C)C(=O)CN(C)C(=O)[C@@H](C(C)C)NC(=O)C[C@@H](C(=O)N(C)C(Cc2ccccc2)C(=O)N(C)[C@@H](Cc2ccccc2)C(=O)N[C@@H](C)C(=O)N2CCCCC2)NC1=O (stereo partly shown) [DP-293] ([dV][Sar][NMeA][NMeV]TF[NMeL][NMeA]ID[ξNMeF][NMeF]A-Piperidide; lactam N-10) |  |  | 29 | 45

From patent publication US9409952B2, “Peptide-compound cyclization method” (Chugai Seiyaku Kabushiki Kaisha, priority 2011, dated 2016)
